Source: ChEMBL document CHEMBL1201862, “PubChem BioAssay data set” (2004)
Several values for one entry are separate records, joined by “and”; a condition that tells them apart may be missing. Equal entries are not always repeated.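 Cells were grown in 96-well plates and exposed to each compound for 48 hours at five concentrations; endpoints were interpolated linearly between bracketing concentrations, or set to the highest concentration if not reached. Here, GI50 denotes the concentration required for 50% inhibition of growth.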 Activity calls are given as the source filed them. Rule as the data show it: active = GI50 up to about 1.1 µM and inactive = higher. Where a SMILES comes first, the peptide text is derived from it. The star is where a group is joined. Cbz = O=C(OCc1ccccc1)*; NHNH2 = NN*

Legend:
Test in all cases: NCI tumour cell line growth inhibition, 48 h
[1] = test system: NCI-H23
[2] = test system: SK-MEL-5
[3] = test system: HT-29
[4] = test system: HCC 2998
[5] = test system: SK-MEL-2
[6] = test system: HOP-62
[7] = test system: SNB-19
[8] = test system: MOLT-4
[9] = test system: HCT-15
[10] = test system: NCI-H226
[11] = test system: PC-3
[12] = test system: SN12C
[13] = test system: NCI-H522
[14] = test system: A498
[15] = test system: Hs-578T
[16] = test system: SNB-75
[17] = test system: LOX IMVI
[18] = test system: SK-OV-3
[19] = test system: UO-31
[20] = test system: TK-10

| SMILES | GI50 [1] | GI50 [2] | GI50 [3] | GI50 [4] | GI50 [5] | GI50 [6] | GI50 [7] | GI50 [8] | GI50 [9] | GI50 [10] | GI50 [11] | GI50 [12] | GI50 [13] | GI50 [14] | GI50 [15] | GI50 [16] | GI50 [17] | GI50 [18] | GI50 [19] | GI50 [20] |
| --- | --- | --- | --- | --- | --- | --- | --- | --- | --- | --- | --- | --- | --- | --- | --- | --- | --- | --- | --- | --- |
| Cc1cn(C2CC(N(O)Cc3ccccc3)C(CO[Si](C)(C)C(C)(C)C)O2)c(=O)[nH]c1=O (configuration not stated) | 26.6 µM (inactive) and 16.7 µM (inactive) | 16.6 µM (inactive) and 18.8 µM (inactive) | 17.3 µM (inactive) and 22.9 µM (inactive) | 19.8 µM (inactive) and 16.7 µM (inactive) | 20.3 µM (inactive) | 19.5 µM (inactive) and 16.3 µM (inactive) | 18.6 µM (inactive) and 34.9 µM (inactive) | 40.2 µM (inactive) and 57.3 µM (inactive) | 37.2 µM | 18.6 µM (inactive) and 18.8 µM (inactive) | 14.5 µM (inactive) and 22.6 µM (inactive) | 16 µM (inactive) and 16.1 µM (inactive) | 18 µM (inactive) | 13.8 µM (inactive) and 26.7 µM (inactive) | 18.4 µM (inactive) and 16.5 µM (inactive) | – | – | – | – | – |
| O=C1CCCn2c(nc3ccccc32)N1 | > 100 µM (inactive) | > 100 µM (inactive) | > 100 µM (inactive) | – | > 100 µM (inactive) | > 100 µM (inactive) | > 100 µM (inactive) | > 100 µM (inactive) | > 100 µM | > 100 µM (inactive) | > 100 µM (inactive) | – | > 100 µM (inactive) | > 100 µM (inactive) | > 100 µM (inactive) | > 100 µM (inactive) | > 100 µM (inactive) | > 100 µM (inactive) | > 100 µM (inactive) | > 100 µM (inactive) |
| O=C(CCN1CCOCC1)c1ccc(Oc2ccc(F)cc2)cc1 | 26.7 µM (inactive) | 31.3 µM (inactive) | 18.7 µM (inactive) | 37.2 µM (inactive) | 23.6 µM (inactive) | 50.2 µM (inactive) | > 100 µM (inactive) | 23.7 µM (inactive) | 19 µM | 26 µM (inactive) | 19.2 µM (inactive) | 30.9 µM (inactive) | – | > 100 µM (inactive) | 19.9 µM (inactive) | 19.6 µM (inactive) | 21.8 µM (inactive) | > 100 µM (inactive) | 19.7 µM (inactive) | 17.9 µM (inactive) |
| Cn1c(=O)cc(NNc2ccc(Cl)c(Cl)c2)[nH]c1=O | 29.2 µM (inactive) | 5.31 µM (inactive) | 18 µM (inactive) | 2.53 µM (inactive) | 16.4 µM (inactive) | 16.4 µM (inactive) | 32.1 µM (inactive) | 14.5 µM (inactive) | 3.75 µM | 19.5 µM (inactive) | 12.6 µM (inactive) | 4.34 µM (inactive) | – | 36.8 µM (inactive) | 20.4 µM (inactive) | 23 µM (inactive) | 12.2 µM (inactive) | 20.8 µM (inactive) | 12.1 µM (inactive) | 16.7 µM (inactive) |
| CCOC(=O)C1=COC(C)(c2ccccc2)CC1=O (configuration not stated) | > 100 µM (inactive) | > 100 µM (inactive) | > 100 µM (inactive) | > 100 µM (inactive) | > 100 µM (inactive) | > 100 µM (inactive) | > 100 µM (inactive) | 49.7 µM (inactive) | > 100 µM | – | > 100 µM (inactive) | > 100 µM (inactive) | > 100 µM (inactive) | > 100 µM (inactive) | 88.9 µM (inactive) | > 100 µM (inactive) | – | > 100 µM (inactive) | > 100 µM (inactive) | > 100 µM (inactive) |
| CCOC(=O)CCC(C(=O)OCC)n1nnc2ccc(Nc3c(C)[n+]([O-])c4ccc(Cl)cc4[n+]3[O-])cc21 (configuration not stated) | 33.5 µM (inactive) | 39.4 µM (inactive) | 52.7 µM (inactive) | – | 30.9 µM (inactive) | 36.1 µM (inactive) | > 100 µM (inactive) | 34.5 µM (inactive) | 27.9 µM | 22.4 µM (inactive) | > 100 µM (inactive) | 46.2 µM (inactive) | 43.4 µM (inactive) | > 100 µM (inactive) | > 100 µM (inactive) | 31.4 µM (inactive) | 28.8 µM (inactive) | 60.1 µM (inactive) | 42.2 µM (inactive) | 66.2 µM (inactive) |
| Cc1cn(CCC(N)C(=O)O)c(=O)[nH]c1=O (configuration not stated) | > 100 µM (inactive) | > 100 µM (inactive) | > 100 µM (inactive) | – | > 100 µM (inactive) | > 100 µM (inactive) | > 100 µM (inactive) | > 100 µM (inactive) | > 100 µM | > 100 µM (inactive) | > 100 µM (inactive) | > 100 µM (inactive) | > 100 µM (inactive) | > 100 µM (inactive) | > 100 µM (inactive) | > 100 µM (inactive) | > 100 µM (inactive) | > 100 µM (inactive) | > 100 µM (inactive) | > 100 µM (inactive) |
| Nc1ccc2nc3n(c2c1)C(c1c(F)cccc1F)SC3 (configuration not stated) | > 100 µM (inactive) | 41 µM (inactive) | > 100 µM (inactive) | > 100 µM (inactive) | > 100 µM (inactive) | > 100 µM (inactive) | > 100 µM (inactive) | 38.1 µM (inactive) | > 100 µM | – | > 100 µM (inactive) | > 100 µM (inactive) | > 100 µM (inactive) | > 100 µM (inactive) | > 100 µM (inactive) | 80.4 µM (inactive) | > 100 µM (inactive) | > 100 µM (inactive) | 72.6 µM (inactive) | > 100 µM (inactive) |
| COc1cc(NC(C)=O)ccc1C(=O)N/N=C/c1ccco1 | > 100 µM (inactive) | 44.5 µM (inactive) | > 100 µM (inactive) | – | > 100 µM (inactive) | > 100 µM (inactive) | > 100 µM (inactive) | 31.3 µM (inactive) | > 100 µM | – | > 100 µM (inactive) | > 100 µM (inactive) | > 100 µM (inactive) | > 100 µM (inactive) | > 100 µM (inactive) | > 100 µM (inactive) | 97.5 µM (inactive) | > 100 µM (inactive) | 67.1 µM (inactive) | – |
| COC(=O)C1=Cc2cc(OC)c(O)cc2[C@@H](c2ccc(O)c(OC)c2)[C@@H]1C(=O)OC | > 100 µM (inactive) | 43.9 µM (inactive) | > 100 µM (inactive) | > 100 µM (inactive) | – | > 100 µM (inactive) | > 100 µM (inactive) | > 100 µM (inactive) | > 100 µM | > 100 µM (inactive) | > 100 µM (inactive) | > 100 µM (inactive) | > 100 µM (inactive) | > 100 µM (inactive) | 78.9 µM (inactive) | 58.1 µM (inactive) | > 100 µM (inactive) | – | 10.5 µM (inactive) | – |
| OCCCN(CCc1ccc(Cl)c(Cl)c1)CCN1CCCC1 | 69.8 µM (inactive) | – | 24.7 µM (inactive) | 18 µM (inactive) | 18.9 µM (inactive) | > 100 µM (inactive) | 68.4 µM (inactive) | 39.2 µM (inactive) | 39.5 µM | – | 48.9 µM (inactive) | 73.3 µM (inactive) | 30.3 µM (inactive) | 17.3 µM (inactive) | 38.8 µM (inactive) | 33 µM (inactive) | 35.9 µM (inactive) | > 100 µM (inactive) | 50.2 µM (inactive) | 40.6 µM (inactive) |
| C[n+]1c(/C=C/c2ccc(O)c3ncccc23)[se]c2ccccc21 | 4.05 µM (inactive) | 7.76 µM (inactive) | 4.11 µM (inactive) | – | 4.26 µM (inactive) | 3.3 µM (inactive) | 4.5 µM (inactive) | 1.94 µM (inactive) | 0.631 µM | 11.5 µM (inactive) | 2.92 µM (inactive) | 2.99 µM (inactive) | 2.58 µM (inactive) | 11.2 µM (inactive) | 15.7 µM (inactive) | 12.1 µM (inactive) | 2.33 µM (inactive) | 5.96 µM (inactive) | 2.71 µM (inactive) | 3.1 µM (inactive) |
| Cn1c(=O)c2c(ncn2CCSS(=O)(=O)O)n(C)c1=O | > 100 µM (inactive) | > 100 µM (inactive) | 99.5 µM (inactive) | – | 55.3 µM (inactive) | 86.9 µM (inactive) | > 100 µM (inactive) | – | > 100 µM | > 100 µM (inactive) | > 100 µM (inactive) | > 100 µM (inactive) | > 100 µM (inactive) | > 100 µM (inactive) | 74.5 µM (inactive) | 38.5 µM (inactive) | – | > 100 µM (inactive) | > 100 µM (inactive) | > 100 µM (inactive) |
| CCOC(=O)CCC(NC(=O)OCc1ccccc1)C(=O)NC(CCC(=O)OCC)C(=O)NN (configuration not stated) (Cbz-Glu(OEt)-Glu(OEt)-NHNH2; configuration not given here) | – | > 100 µM (inactive) | > 100 µM (inactive) | > 100 µM (inactive) | > 100 µM (inactive) | > 100 µM (inactive) | > 100 µM (inactive) | > 100 µM (inactive) | > 100 µM | > 100 µM (inactive) | > 100 µM (inactive) | > 100 µM (inactive) | – | > 100 µM (inactive) | > 100 µM (inactive) | > 100 µM (inactive) | – | – | > 100 µM (inactive) | > 100 µM (inactive) |
| CCCCCCCCCCCCCCN [TETRADECYLAMINE] | > 100 µM (inactive) | > 100 µM (inactive) | > 100 µM (inactive) | > 100 µM (inactive) | > 100 µM (inactive) | > 100 µM (inactive) | – | > 100 µM (inactive) | > 100 µM | – | > 100 µM (inactive) | > 100 µM (inactive) | > 100 µM (inactive) | > 100 µM (inactive) | > 100 µM (inactive) | > 100 µM (inactive) | > 100 µM (inactive) | > 100 µM (inactive) | – | > 100 µM (inactive) |
